PubChem BioAssay AID606 (Columbia University Molecular Screening Center, 2007)
Calls of active or inactive are those of the source.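 How the source made its calls: active means IC50 under 40 µM in the dose-response test; inactive means IC50 of 40 µM or more, or never dose-tested.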

Biological target: Tyrosine-protein phosphatase non-receptor type 22 (Homo sapiens) (UniProt Q9Y2R2)
Assay: LYP phosphatase inhibitors, primary screen, biochemical, DiFMUP fluorescence, recombinant catalytic domain, 10 µM (AID 606)

Tyrosine-protein phosphatase non-receptor type 22 (Homo sapiens), sequence (Q9Y2R2 whole entry, looked up, the tested form may be a part): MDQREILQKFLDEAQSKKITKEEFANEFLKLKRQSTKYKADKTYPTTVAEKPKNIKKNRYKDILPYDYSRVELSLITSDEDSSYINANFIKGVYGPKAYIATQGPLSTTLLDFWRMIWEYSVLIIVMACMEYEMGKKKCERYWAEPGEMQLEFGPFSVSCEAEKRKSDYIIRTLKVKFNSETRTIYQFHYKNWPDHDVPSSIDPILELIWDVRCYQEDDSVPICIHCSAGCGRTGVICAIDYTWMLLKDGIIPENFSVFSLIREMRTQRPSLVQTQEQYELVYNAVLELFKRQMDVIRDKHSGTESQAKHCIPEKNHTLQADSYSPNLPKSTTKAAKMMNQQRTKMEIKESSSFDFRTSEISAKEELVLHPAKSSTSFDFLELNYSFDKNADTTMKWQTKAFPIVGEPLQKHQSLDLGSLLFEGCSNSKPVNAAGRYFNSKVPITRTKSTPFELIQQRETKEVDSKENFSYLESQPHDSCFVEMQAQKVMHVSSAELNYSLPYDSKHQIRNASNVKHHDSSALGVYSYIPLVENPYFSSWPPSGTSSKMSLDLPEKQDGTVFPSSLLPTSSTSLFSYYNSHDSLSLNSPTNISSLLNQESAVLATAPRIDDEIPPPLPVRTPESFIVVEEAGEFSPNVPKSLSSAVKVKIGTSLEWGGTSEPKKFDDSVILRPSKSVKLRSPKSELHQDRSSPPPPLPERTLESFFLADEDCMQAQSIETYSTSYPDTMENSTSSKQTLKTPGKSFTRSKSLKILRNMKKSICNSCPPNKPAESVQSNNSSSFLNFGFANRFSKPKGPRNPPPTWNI

IC50: > 40 µM (inactive)
SMILES: Oc1ccc2ccccc2c1C=NC12CN3CCN(CN(C3)C1)C2
